According to ChEMBL document CHEMBL4359884, “Design, synthesis and biological evaluation of novel pleuromutilin derivatives possessing acetamine phenyl linker” (Eur J Med Chem, 2019):
Values after ≈ are worked out from the molar mass of the structure shown.

Legend:
Type in all cases: functional
Staphylococcus aureus [1] = assay: Antibacterial activity against Staphylococcus aureus AD3 assessed as bacterial growth inhibition incubated for 24 hrs by broth dilution method; conditions: AD3, 24 h
Staphylococcus aureus [2] = assay: Antibacterial activity against Staphylococcus aureus ATCC 29213 assessed as bacterial growth inhibition incubated for 24 hrs by broth dilution method; conditions: ATCC 29213, 24 h
Escherichia coli [3] = assay: Antibacterial activity against Escherichia coli ATCC 25922 assessed as bacterial growth inhibition incubated for 24 hrs by broth dilution method; conditions: ATCC 25922, 24 h
Escherichia coli [4] = assay: Antibacterial activity against Escherichia coli 9-1 assessed as bacterial growth inhibition incubated for 24 hrs by broth dilution method; conditions: 9-1, 24 h
Staphylococcus aureus [5] = assay: Antibacterial activity against methicillin-resistant Staphylococcus aureus ATCC 43300 assessed as bacterial growth inhibition incubated for 24 hrs by broth dilution method; conditions: ATCC 43300, 24 h

SMILES	MIC (Staphylococcus aureus [1]) [µg/mL]	MIC (Staphylococcus aureus [2]) [µg/mL]	MIC (Escherichia coli [3]) [µg/mL]	MIC (Escherichia coli [4]) [µg/mL]	MIC (Staphylococcus aureus [5]) [µg/mL]
C=C[C@]1(C)C[C@@H](OC(=O)CSc2ccccc2NC(=O)CN2CCN(c3ccccc3)CC2)[C@]2(C)[C@H](C)CC[C@]3(CCC(=O)[C@H]32)[C@@H](C)[C@@H]1O	0.25 (≈ 0.363 µM)	0.25 (≈ 0.363 µM)	> 32	> 32	0.25 (≈ 0.363 µM)
C=C[C@]1(C)C[C@@H](OC(=O)CSc2ccccc2NC(=O)CN2CCN(c3ccc(C)cc3)CC2)[C@]2(C)[C@H](C)CC[C@]3(CCC(=O)[C@H]32)[C@@H](C)[C@@H]1O	> 8	> 8	> 32	> 32	> 8
C=C[C@]1(C)C[C@@H](OC(=O)CSc2ccccc2NC(=O)CN2CCN(C)CC2)[C@]2(C)[C@H](C)CC[C@]3(CCC(=O)[C@H]32)[C@@H](C)[C@@H]1O	0.5 (≈ 0.799 µM)	0.5 (≈ 0.799 µM)	> 32	> 32	0.5 (≈ 0.799 µM)
C=C[C@]1(C)C[C@@H](OC(=O)CSc2ccccc2NC(=O)CN2CCN(c3ccc(O)cc3)CC2)[C@]2(C)[C@H](C)CC[C@]3(CCC(=O)[C@H]32)[C@@H](C)[C@@H]1O	0.5 (≈ 0.71 µM)	1 (≈ 1.42 µM)	> 32	> 32	1 (≈ 1.42 µM)
C=C[C@]1(C)C[C@@H](OC(=O)CSc2ccccc2NC(=O)CN(CC)CC)[C@]2(C)[C@H](C)CC[C@]3(CCC(=O)[C@H]32)[C@@H](C)[C@@H]1O	0.125 (≈ 0.209 µM)	0.125 (≈ 0.209 µM)	> 32	> 32	0.125 (≈ 0.209 µM)
C=C[C@]1(C)C[C@@H](OC(=O)CSc2ccccc2NC(=O)CN2CCN(c3ccccc3OC)CC2)[C@]2(C)[C@H](C)CC[C@]3(CCC(=O)[C@H]32)[C@@H](C)[C@@H]1O	> 8	> 8	> 32	> 32	> 8
C=C[C@]1(C)C[C@@H](OC(=O)CSc2ccccc2NC(=O)CN2CCN(c3cccc(O)c3)CC2)[C@]2(C)[C@H](C)CC[C@]3(CCC(=O)[C@H]32)[C@@H](C)[C@@H]1O	0.25 (≈ 0.355 µM)	0.25 (≈ 0.355 µM)	> 32	> 32	0.125 (≈ 0.178 µM)
C=C[C@]1(C)C[C@@H](OC(=O)CSc2ccccc2NC(=O)CN2CCN(c3cccc(OC)c3)CC2)[C@]2(C)[C@H](C)CC[C@]3(CCC(=O)[C@H]32)[C@@H](C)[C@@H]1O	1 (≈ 1.39 µM)	> 8	> 32	> 32	4 (≈ 5.57 µM)
C=C[C@]1(C)C[C@@H](OC(=O)CSc2ccccc2NC(=O)CN2CCC(O)CC2)[C@]2(C)[C@H](C)CC[C@]3(CCC(=O)[C@H]32)[C@@H](C)[C@@H]1O	0.25 (≈ 0.399 µM)	0.125 (≈ 0.199 µM)	> 32	> 32	0.125 (≈ 0.199 µM)
C=C[C@]1(C)C[C@@H](OC(=O)CSc2ccccc2NC(=O)CN2CCN(c3ccccc3C)CC2)[C@]2(C)[C@H](C)CC[C@]3(CCC(=O)[C@H]32)[C@@H](C)[C@@H]1O	2 (≈ 2.85 µM)	4 (≈ 5.7 µM)	> 32	> 32	2 (≈ 2.85 µM)
C=C[C@]1(C)C[C@@H](OC(=O)CSc2ccccc2NC(=O)CN2CCN(c3ccccc3Cl)CC2)[C@]2(C)[C@H](C)CC[C@]3(CCC(=O)[C@H]32)[C@@H](C)[C@@H]1O	8 (≈ 11.1 µM)	8 (≈ 11.1 µM)	> 32	> 32	8 (≈ 11.1 µM)
